Measurements from ChEMBL document CHEMBL2062415, “Steroids from Commiphora mukul display antiproliferative effect against human prostate cancer PC3 cells via induction of apoptosis” (Bioorg Med Chem Lett, 2012).

What was measured:
MCF7 [1] = assay: Induction of apoptosis in human MCF7 cells assessed as accumulation at S phase at 20 uM after 48 hrs by propidium iodide staining-based flow cytometric analysis (reference value: 22.99%); format: functional
MCF7 [2] = assay: Induction of apoptosis in human MCF7 cells assessed as late apoptotic cells at 10 uM after 48 hrs by annexinV/propidium iodide staining-based FITC analysis (reference value: 3.57%); format: functional
MCF7 [3] = assay: Induction of apoptosis in human MCF7 cells assessed as accumulation at G2/M phase at 10 uM after 48 hrs by propidium iodide staining-based flow cytometric analysis (reference value: 9.55%); format: functional
PC-3 [4] = assay: Induction of apoptosis in human PC3 cells assessed as late apoptotic cells at 5 uM after 48 hrs by annexinV/propidium iodide staining-based FITC analysis relative to control; format: functional
PC-3 [5] = assay: Induction of apoptosis in human PC3 cells assessed as necrotic cells at 10 uM after 48 hrs by annexinV/propidium iodide staining-based FITC analysis relative to control; format: functional
MCF7 [6] = assay: Induction of apoptosis in human MCF7 cells assessed as early apoptotic cells at 20 uM after 48 hrs by annexinV/propidium iodide staining-based FITC analysis (reference value: 5.48%); format: functional
DU-145 = assay: Induction of apoptosis in human DU145 cells assessed as accumulation at G2/M phase at 10 uM after 48 hrs by propidium iodide staining-based flow cytometric analysis (reference value: 16.14%); format: functional
PC-3 [7] = assay: Cell cycle arrest in human PC3 cells assessed as accumulation at S phase at 10 uM after 48 hrs by propidium iodide staining-based flow cytometric analysis relative to control; format: functional
K562 [8] = assay: Cytotoxicity against human K562 cells after 24 hrs by MTT assay; format: functional, cell-based; conditions: K562, 24 h
K562 [9] = assay: Induction of apoptosis in human K562 cells assessed as late apoptotic cells at 10 uM after 48 hrs by annexinV/propidium iodide staining-based FITC analysis (reference value: 2.55%); format: functional
PC-3 [10] = assay: Induction of apoptosis in human PC3 cells assessed as early apoptotic cells after 48 hrs by annexinV/propidium iodide staining-based FITC analysis relative to control; format: functional, cell-based
MCF7 [11] = assay: Induction of apoptosis in human MCF7 cells assessed as late apoptotic cells at 20 uM after 48 hrs by annexinV/propidium iodide staining-based FITC analysis (reference value: 3.57%); format: functional
PC-3 [12] = assay: Induction of apoptosis in human PC3 cells assessed as increase in PARP cleavage product after 48 hrs by Western blot analysis; format: functional, cell-based
PC-3 [13] = assay: Induction of apoptosis in human PC3 cells assessed as early apoptotic cells at 5 uM after 48 hrs by annexinV/propidium iodide staining-based FITC analysis relative to control; format: functional
MCF7 [14] = assay: Induction of apoptosis in human MCF7 cells assessed as early apoptotic cells at 5 uM after 48 hrs by annexinV/propidium iodide staining-based FITC analysis (reference value: 5.48%); format: functional

**Q.** Which results are given for `CC[C@H](/C=C/[C@@H](C)[C@H]1CC[C@H]2[C@H]3[C@H]([C@H](O)C[C@]12C)[C@@]1(C)CC[C@H](O)CC1=C[C@H]3O)C(C)C`?
**A.** Activity (MCF7 [1]): 19.37%; Activity (MCF7 [2]): 4.42%; Activity (MCF7 [3]): 10.03%; Activity (PC-3 [4]): 27.43%; Activity (PC-3 [5]): 2.09%; Activity (MCF7 [6]): 9.91%; Activity (DU-145): 21.4%; Activity (PC-3 [7]): 23.27%; IC50 (K562 [8]): 5.21 µM; Activity (K562 [9]): 2.62%; Activity (PC-3 [10]): Dose-dependent effect; Activity (MCF7 [11]): 6.76%; Activity (PC-3 [12]): Dose-dependent effect; Activity (PC-3 [13]): 1.05%; Activity (MCF7 [14]): 6.72%
